Legend:
succinate dehydrogenase = molecular target: T1, succinate dehydrogenase (Botrytis cinerea, UniProt A0A384J5E4+A0A384J8V8+A0A384JHJ5); assay: Enzyme inhibition: succinate dehydrogenase activity in Botrytis cinerea mitochondria (DCPIP reduction); type: biochemical; details: concentration required to inhibit the rate of DCPIP reduction by 50%; Botrytis cinerea isolate Nick mitochondria; read-out: I50 (μM conc.)
T1 construct: succinate-DCPIP reductase assay with KCN
Description: Mitochondria were isolated by a method adapted from G.A. White [Biochem. Biophys. Res. Commun. 44: 1212, 1971]. Twenty to thirty grams of Botrytis cinerea isolate Nick were resuspended in 250 mL 0.25M sucrose, 5mM Na4 EDTA, pH 7.0 (+) 0.15% (w/v) bovine serum albumin (BSA) and placed in a Bead Beater chamber (Biospec Products, Bartlesville, Ok.). Zirconium oxide beads (0.5mm) were added to finish filling the chamber. Four 30 second beats separated by 2 minute temperature equilibration periods in the cold were used to break the mycelia. A crude mitochondrial preparation was harvested from the homogenate by differential centrifugation at 4° C. and resuspended in BSA-free sucrose/EDTA media and used for SDH assays.
The succinate dehydrogenase activity was measured at 600 nm in 50 mM potassium phosphate, pH 7.2, 1 mM KCN, 45 μM 2,6-dichlorophenolindophenol (DCPIP) and 17 mM disodium succinate (final volume, 1 mL) with a Perkin-Elmer Lambda 7 ultraviolet-visible spectrophotometer. The test compounds were added as acetone solutions (final concentration of acetone, 1% (v/v)). The mitochondrial preparatons were used to initiate the reaction. All rates were corrected for endogenous activities minus succinate. Semilog plots of percentage inhibition versus test compound concentration were used to determine inhibition expressed as I50 (μM) which is the concentration required to inhibit the rate of DCPIP reduction by 50%. The commercial fungicide carboxin was used as standard throughout.

Botrytis cinerea [1] = assay: Eggplant grey mold; type: in vivo; parameters: scale not given here; details: inoculated 24 h later, rated after 3-4 days; for Disease Control Rating at 20 ppm: eggplant sprayed with 20 ppm; for Disease Control Rating at 100 ppm: eggplant sprayed with 100 ppm; for Disease Control Rating at 500 ppm: eggplant sprayed with 500 ppm
Description: Eggplant seed are planted in 2.25" square pots, six per pot, and maintained in growth chambers set at 23° C., 80% humidity, and 12 h photoperiod. When the plants are at the cotyledon stage (14-18 days afterplanting), the plants are sprayed with 1.5 mL/pot of 500, 100 or 20 ppm 2:3 acetone:water (with 0.5% Tween® 20) formulations of the test compounds.
Twenty-four hours later the plants are inoculated with Botrytis cinerea, approximately 0.5 mL/pot of a 4×10^6 spore/mL suspension. The plantes are incubated at 23° C. and 100% humidity for 3-4 days, at which time disease control ratings are made based on presence and severity of Botrytis lesions.

Botrytis cinerea [2] = assay: Vine grey mold (grape berries); type: in vivo; details: average of six berries, 7-10 days; for pest or weed control at 50 ppm: grape berries treated with 50 ppm, read-out: % DISEASE CONTROL 50 ppm; for pest or weed control at 200 ppm: grape berries treated with 200 ppm, read-out: % DISEASE CONTROL 200 ppm
Description: Grape berries, which have been washed and surfaced sterilized in 70% ethanol for one minute, are, except for the negative controls, treated with 0.2 mL of a 2:3 acetone/water formulation (containing 0.05% Tween® 20) of 200 or 50 ppm of the test compounds and placed one per well in 12-well plates. Six berries per treatment level are used. Twenty-four hours later each berry is inoculated with Botrytis cinerea conidia, 0.2 mL of 10^6 spores/mL suspension. The plates are incubated at 20° C. with a 12 hours photoperiod for 7-10 days and the percent surface area infected with the disease is determined for each replicate using the values of 0, 1, 2, 5, 7, 10, 15, 20, 25, 30, 35, 40, 45, 50, 55, 60, 65, 70, 75, 80, 85, 90, 95, and 100%. Treatment means are calculated and percent disease control is determined by the formula [(control mean - treatment mean)/control means]×100.
Some of the compounds have been tested more than once and the results shown are the average of the number of tests reported.

Rhizoctonia solani = assay: Rice sheath blight; type: in vivo; parameters: scale not given here; details: inoculated two days later, rated after 7 days, average of five plants; for Disease Control Rating at 0.5 mg/mL: foliage and soil sprayed with 0.5 mg/mL; for Disease Control Rating at 0.02 mg/mL: foliage and soil sprayed with 0.02 mg/mL; for Disease Control Rating at 0.1 mg/mL: foliage and soil sprayed with 0.1 mg/mL
Description: Rice plants, 11 to 15 days old, are grown in 7.65 cm^2 pots. Each plant in the treatment groups is treated by spraying both the foliage and the soil surface, each with 2 mL of a water/acetone/Tween®20 formulation containing 0.5, 0.1, or 0.02 mg/mL of Compound A. The pots are placed in flood trays which are filled with water to just below the soil line. Two days later, approximately two grams of Rhizoctonia solani inoculum, cultured on rice grain for four to eight weeks, is applied to the base of the rice plants in each pot. After 7 days in a 25° C. high humidity growth chamber, each plant is evaluated for the level of disease contro as compared to untreated controls by the following scale and the average of five plants per treatment level is calculated.

T1 sequence (A0A384J5E4 1-300): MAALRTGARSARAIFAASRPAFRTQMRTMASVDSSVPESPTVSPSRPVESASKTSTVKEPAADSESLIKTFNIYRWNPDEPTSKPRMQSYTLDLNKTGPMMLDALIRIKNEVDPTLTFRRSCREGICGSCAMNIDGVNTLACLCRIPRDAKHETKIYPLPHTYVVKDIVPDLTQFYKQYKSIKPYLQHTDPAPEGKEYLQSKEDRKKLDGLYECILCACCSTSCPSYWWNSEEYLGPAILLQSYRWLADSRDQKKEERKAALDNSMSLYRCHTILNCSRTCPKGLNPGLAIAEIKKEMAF
T1 sequence (A0A384J8V8 1-189): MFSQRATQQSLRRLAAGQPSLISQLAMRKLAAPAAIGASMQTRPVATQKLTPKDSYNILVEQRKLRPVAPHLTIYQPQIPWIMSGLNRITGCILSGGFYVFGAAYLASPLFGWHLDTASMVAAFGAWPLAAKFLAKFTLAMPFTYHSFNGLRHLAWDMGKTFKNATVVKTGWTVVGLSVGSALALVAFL
T1 sequence (A0A384JHJ5 1-192): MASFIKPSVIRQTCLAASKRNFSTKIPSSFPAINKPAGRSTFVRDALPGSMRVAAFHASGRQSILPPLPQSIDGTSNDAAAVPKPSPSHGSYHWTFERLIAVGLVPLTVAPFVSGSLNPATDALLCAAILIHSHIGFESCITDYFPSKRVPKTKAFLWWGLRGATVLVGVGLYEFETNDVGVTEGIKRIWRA
T1 sequence (A0A384K456 1-647 partner): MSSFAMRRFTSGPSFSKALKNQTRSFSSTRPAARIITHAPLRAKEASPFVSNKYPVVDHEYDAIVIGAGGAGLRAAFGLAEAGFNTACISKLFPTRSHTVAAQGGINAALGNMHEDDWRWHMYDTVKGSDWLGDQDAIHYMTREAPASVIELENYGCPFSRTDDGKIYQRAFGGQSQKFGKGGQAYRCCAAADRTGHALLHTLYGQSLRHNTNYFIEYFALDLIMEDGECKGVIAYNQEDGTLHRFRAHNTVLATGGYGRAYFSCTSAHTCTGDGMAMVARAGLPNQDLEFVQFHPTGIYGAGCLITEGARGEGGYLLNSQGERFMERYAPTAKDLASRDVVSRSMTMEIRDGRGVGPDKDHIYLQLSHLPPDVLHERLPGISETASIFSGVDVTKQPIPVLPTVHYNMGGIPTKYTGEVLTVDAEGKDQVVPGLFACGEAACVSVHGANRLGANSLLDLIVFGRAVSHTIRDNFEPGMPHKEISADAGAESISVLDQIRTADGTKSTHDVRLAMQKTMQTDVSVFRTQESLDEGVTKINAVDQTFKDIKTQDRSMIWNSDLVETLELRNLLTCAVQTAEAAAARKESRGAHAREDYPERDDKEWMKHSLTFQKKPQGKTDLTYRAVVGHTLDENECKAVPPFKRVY

SMILES | IC50 (succinate dehydrogenase) | Disease Control Rating at 20 ppm (Botrytis cinerea [1]) | Disease Control Rating at 100 ppm (Botrytis cinerea [1]) | Disease Control Rating at 500 ppm (Botrytis cinerea [1]) | pest or weed control at 50 ppm (Botrytis cinerea [2]) | pest or weed control at 200 ppm (Botrytis cinerea [2]) | Disease Control Rating at 0.5 mg/mL (Rhizoctonia solani) | Disease Control Rating at 0.02 mg/mL (Rhizoctonia solani) | Disease Control Rating at 0.1 mg/mL (Rhizoctonia solani)
Cn1cc(C(=O)Nc2ccccc2[C@@H]2C[C@H]3CC[C@@H]2C3)c(C(F)F)n1 (relative stereo) [Example 26, 1H-pyrazole-4-carboxamide, N-(2-bicyclo[2.2.1]hept-2-ylphenyl)-3-(difluoromethyl)-1-methyl-, exo-] | 0.0017 µM | 1 | 2 | 1 | 97% | 100% | 1 |  | 
Cn1cc(C(=O)Nc2ccccc2[C@@H]2C[C@H]3CC[C@@H]2C3)c(C(F)(F)F)n1 (relative stereo) [Example 27, 1H-pyrazole-4-carboxamide, N-(2-bicyclo[2.2.1]hept-2-ylphenyl)-1-methyl-3-(trifluoromethyl)-, exo-] | 0.0048 µM | 0 | 1 | 2 | 80% | 74% | 0 |  | 
Cn1cc(C(=O)Nc2ccccc2[C@@H]2C[C@H]3CC[C@@H]2C3)c(Cl)n1 (relative stereo) [Example 52, 1H-pyrazole-4-carboxamide, N-(2-bicyclo[2.2.1]hept-2-ylphenyl)-3-chloro-1-methyl-, exo-] | 0.049 µM |  |  | 0 | 19% | 30% | 2 | 0 | 2
Cn1cc(C(=O)Nc2ccccc2[C@@H]2C[C@H]3CC[C@@H]2C3)c(I)n1 (relative stereo) [Example 58, 1H-pyrazole-4-carboxamide, N-(2-bicyclo[2.2.1]hept-2-ylphenyl)-3-iodo-1-methyl-, exo-] | 0.0086 µM | 0 | 0 | 2 | 51% | 78% | 2 |  | 
Cn1cc(C(=O)Nc2ccccc2[C@@H]2C[C@H]3CC[C@@H]2C3)c(Br)n1 (relative stereo) [Example 65, 1H-pyrazole-4-carboxamide, N-(2-bicyclo[2.2.1]hept-2-ylphenyl)-3-bromo-1-methyl-, exo-] | 0.011 µM | 0 | 1 | 2 | 47% | 85% | 3 | 2 | 3
C[C@H]1CCC[C@H](c2ccccc2NC(=O)c2cn(C)nc2C(F)(F)F)C1 (relative stereo) [Example 70, 1H-pyrazole-4-carboxamide, 1-methyl-N-[2-(3-methylcyclohexyl)-phenyl]-3-(trifluoromethyl)-, trans-] | 0.012 µM | 1 | 2 | 3 | 97% | 96% | 0 |  | 
Cc1nn(C)cc1C(=O)Nc1ccccc1[C@@H]1C[C@H]2CC[C@@H]1C2 (relative stereo) [Example 71, 1H-pyrazole-4-carboxamide, N-(2-bicyclo[2.2.1]hept-2-ylphenyl)-1,3-dimethyl-, exo-] | 0.046 µM |  |  | 0 | 25% | 57% | 3 | 1 | 3
C[C@@H]1CCC[C@@H](C)C1Oc1ccccc1NC(=O)c1cn(C)nc1C(F)(F)F (relative stereo) [Example 75, 1H-pyrazole-4-carboxamide, 1-methyl-N-[2-[(2,6-dimethylcyclohexyl)oxy]phenyl]-3-(trifluoromethyl)-, (1alpha,2alpha,6beta)-] | 0.013 µM |  |  | 0 | 6% | 0% | 0 |  | 
C[C@@H]1CCC[C@H](c2ccccc2NC(=O)c2cn(C)nc2C(F)(F)F)C1 (relative stereo) [Example 79, 1H-pyrazole-4-carboxamide, 1-methyl-N-[2-(3-methylcyclohexyl)phenyl]-3-(trifluoromethyl)-, cis-] | 0.011 µM | 0 | 1 | 2 | 69% | 97% | 3 | 3 | 3
Cn1cc(C(=O)Nc2ccccc2O[C@@H]2C[C@H]3CC[C@@H]2C3)c(C(F)F)n1 (relative stereo) [Example 80, 1H-pyrazole-4-carboxamide, N-[2-(bicyclo[2.2.1]hept-2-yloxy)-phenyl]-3-(difluoromethyl)-1-methyl-, exo-] | 0.083 µM |  |  | 0 | 0% | 0% | 3 | 2 | 3
Cn1cc(C(=O)Nc2cc(Br)cc(Br)c2C2CCCCC2)c(C(F)(F)F)n1 [Example 136, 1H-pyrazole-4-carboxamide, N-(3,5-dibromo-2-cyclohexylphenyl)-1-methyl-3-(trifluoromethyl)-] |  | 0 | 0 | 1 | 7% | 0% | 0 |  | 
